Data reported in ChEMBL document CHEMBL5137120, “Modified ent-Abietane Diterpenoids from the Leaves of Suregada zanzibariensis” (J Nat Prod, 2022).

Assays:
[1] = Cytotoxicity against African green monkey GMK-AH-1 cell assessed as cell growth inhibition at >=100 uM incubated for 3 days by CellTiter96 Aqueous one reagent based assay; type: toxicity; settings: chlorocebus aethiops, gmk-ah-1, 72 h, time 3 day
[2] = Cytotoxicity against human THP-1 cells assessed as cell growth inhibition incubated for 24 hrs by MTT assay; type: toxicity, cell-based

Compound | Activity [1] | IC50 at 24 h [2] [µM]
C=C1[C@@H](C)CC(=O)[C@@]2(C)[C@@H]3C[C@H]4OC(=O)C(C)=C4[C@H]4O[C@]43CC[C@]12O | Non-Toxic | 
C=C1[C@@H](C)CC(=O)[C@@]2(C)[C@@H]3C[C@H]4OC(=O)C(C)=C4C=C3CC[C@]12O | Non-Toxic | 
CC(C)[C@H]1CC[C@@H]2[C@]1(C)CC[C@]1(C)[C@H]3CC=C4[C@@H](CC[C@H](O)C4(C)C)[C@]3(C)CC[C@@]21C | Non-Toxic | 1.78
